Read-outs that look alike come from different tables or passages of the source. Each block holds one compound with its values, some of them ahead of it.
Assays:
lysozyme = assay: FL during lysozyme fibril formation; conditions: 10, 50 and 100 μM, over 4 days
[1] = Photophysical properties in solution and aggregate states (AIE effect); format: physicochemical; conditions: for Emission maximum wavelength (λem): excitation 350 nm
amyloid-β-peptide = amyloid-β-peptide (Homo sapiens, UniProt P05067); assay: FL with amyloid-β-peptide before and after aging; conditions: 0.1 mg/mL amyloid-β-peptide, λex 350 nm
Chain of amyloid-β-peptide (P05067 672-711 limits assumed): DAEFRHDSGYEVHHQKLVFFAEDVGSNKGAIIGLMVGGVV

[2] = target: Bovine serum albumin (BSA) (Bos taurus, UniProt P02769); assay: Fluorimetric titration of BSA to polyenes; format: binding; conditions: for ΦE (quantum yield), bind / λex (emission maximum), bind: BSA solution of TPE-OH•Na2 or TPE-SO3 in aqueous phosphate buffer pH 7.0; for λex (emission maximum), bind: excitation 350 nm
Chain of Bovine serum albumin (BSA) (P02769 25-607): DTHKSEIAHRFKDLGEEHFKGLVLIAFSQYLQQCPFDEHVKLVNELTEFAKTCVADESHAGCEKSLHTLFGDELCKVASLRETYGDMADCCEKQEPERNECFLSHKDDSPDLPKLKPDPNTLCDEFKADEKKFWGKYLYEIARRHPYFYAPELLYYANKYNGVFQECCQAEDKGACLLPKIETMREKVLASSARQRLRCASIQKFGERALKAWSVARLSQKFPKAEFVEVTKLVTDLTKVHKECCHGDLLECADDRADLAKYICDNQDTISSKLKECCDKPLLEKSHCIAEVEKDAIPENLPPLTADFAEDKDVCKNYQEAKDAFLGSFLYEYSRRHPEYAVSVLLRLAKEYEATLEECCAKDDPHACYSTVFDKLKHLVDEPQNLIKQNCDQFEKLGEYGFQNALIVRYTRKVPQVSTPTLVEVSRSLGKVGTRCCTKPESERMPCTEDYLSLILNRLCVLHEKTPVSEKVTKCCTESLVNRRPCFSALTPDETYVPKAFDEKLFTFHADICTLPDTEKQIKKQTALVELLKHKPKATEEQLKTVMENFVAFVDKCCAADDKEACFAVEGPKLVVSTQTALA
Method: (§1) Fluorimetric titration of biomacromolecules to polyenes Bovine serum albumin (BSA) and calf thymus DNA (ctDNA) were selected as model proteins and DNA. BSA was dissolved in a pH 7.0 phosphate buffer solution (1.0 mg/ml). DNA was dissolved in deionized water (1.0 mg/ml) and filtered through a 0.45 μm filter. The actual concentration (in nucleic base) was determined by UV photometry using the extinction coefficient ε260=6600 M^−1 cm^−1.
(§2) Stock solutions of polyenes were 5×10^−4 M in water. Fluorescence titration was carried out by sequentially adding 100 μl aliquots of DNA or BSA solutions to a 100 μl stock solution of polyenes, followed by adding an aqueous phosphate buffer (10 mM, pH 7) to acquire a 10.00 ml solution. The mixtures were stirred for half an hour prior to taking their spectra.
Complexation of the water-soluble AIE TPEs 3 and 4 with calf thymus DNA (ctDNA) and bovine serum albumin (BSA) were investigated by spectrometric titrations in aqueous phosphate buffer (pH=7.0) at 25 C. Stock solutions of TPEs 3 and 4 (0.25 mM) were prepared.

[3] = tested on: heparin, apoferritin, cellulose, papain, native and fibrillar insulin; assay: FL specificity against other protein monomers; conditions: protein 1.0 mg/mL
[4] = tested on: ctDNA/RNA from torula yeast/BSA; assay: Fluorescence increments / binding isotherm with ctDNA, RNA and BSA; conditions: 10 μg/ml ctDNA or RNA, dye 5 μM
Method: FIG. 8 illustrates increments of fluorescence of TPE-C2N^+ (8), N+C2-TPE-C2N^+ (9), TPE-C4N^+ (10), N+C4-TPE-C4N^+ (11) when binding with 10 μg/ml ctDNA/10 μg/ml RNA diethylaminoethanol (DEAE) salt from torula yeast/10 μg/ml RNA from torula yeast in buffer solution pH=7. Concentration of dyes: 5 μM; excitation wavelength: 350 nm. The four cationic TPE derivatives display larger FL enhancement in the presence of DNA than that of RNA.
FIG. 9 illustrates the binding isotherm of N+C2-TPE-C2N^+ (5 μM) to ctDNA/RNA from torula yeast/BSA (plot of the fluorescence intensity at 470 nm for ctDNA/RNA, and at 467 nm for BSA) in aqueous phosphate buffer (pH=7.0).

Solubility = format: physicochemical
[5] = Photophysical properties in solution and aggregate states (AIE effect); format: physicochemical; conditions: for Fluorescence quantum yield (ΦF), molecularly dissolved: AN solution / AN-water mixtures with low water fraction; for Fluorescence quantum yield (ΦF), aggregated: AN/water mixture with 99% water
Text: Changes in the φF values of TBEPE in the AN/water mixtures with different water contents further confirm its AIE nature. […] Afterward the φF value starts to increase swiftly. In the AN/water mixtures with lower water fractions, TBEPE is genuinely dissolved, while in the aqueous mixtures with higher water fractions (>60%), the dye molecules cluster together due to the deterioration in the solvating power of the mixture. When the water fraction is increased to 99 vol %, the aφF value is increased to −18%, which is ˜35-fold higher than that in the pure AN solvent. The absolute φF values of the aggregates should be much higher than the relative ones given in FIG. 26A, if the light scattering caused by the Mie effect of the nanoaggregatcs is taken into consideration. […]
Dilute solutions of TPEs 1 and 2 in AN are practically non-luminescent. Addition of non-solvent water into the AN solutions can turn on the emissions of the dyes. From the molecular solution in AN to the aggregate suspension in an AN-water mixture (1:99 by volume), the fluorescent intensity of TPE 1 at 476 nm is increased by −240 fold (FIG. 11A). Its absorption maximum shifts from 310 nm in the solution to 330 nm in the suspension. The excitation maximum of TPE 1 locates at 330 nm, coinciding well with its absorption maximum. […] Evidently, the emission of TPE 1 is induced by the aggregate formation, or in other words, TPE 1 is AIE-active.
The ΦF value of TPE 1 starts to increase when the water fraction is increased to ˜50%, at which the solvating power of the mixture is decreased to such an extent that the dye molecules begin to aggregate. The ΦF value reaches ˜20% at a water content of 99%, which is ˜40-fold higher than that of its AN solution. […] Their emissions in the mixtures remain as faint as those in the water solutions.

HG21 DNA = assay: CD spectra: G-quadruplex induction by TPE derivatives; format: biochemical; conditions: 9 μM DNA, 4.5 μM TPE derivative, Tris-HCl pH 7.5, 25 °C
Method: [TPE]=4.5 μM; [HG21]=9 μM and [K^+]=0.5 M.
CD spectral profiles of 9 μM DNA in 5 mM Tris-HCl buffer solutions (pH 7.5) incubated under 25° C. with four different TPE derivatives at 4.5 μM or with 0.5M K^+ ions are studied (FIG. 77). TPE derivatives 1-4 are TTAPE (Example 6), TPE-2 (chemical structure is not shown herein), TPE-3 (chemical structure is not shown herein) and TPE-C2N+ (Example 3), respectively. […] On the other hand, DNA incubated with TTAPE or the known quadruplex inducer; K^+ ions have very similar spectral profiles, while the ellipticities of DNA/TTAPE are somehow weaker than DNA/K^+.

calf thymus DNA (ctDNA) = assay: Fluorimetric titration of ctDNA to polyenes; format: binding; conditions: for Relative affinity to ctDNA versus BSA: phosphate buffer pH 7, dye 2.5 μM
Method: as §1, §2
Complexation of the water-soluble AIE TPEs 3 and 4 with calf thymus DNA (ctDNA) and bovine serum albumin (BSA) were investigated by spectrometric titrations in aqueous phosphate buffer (pH=7.0) at 25 C. Stock solutions of TPEs 3 and 4 (0.25 mM) were prepared. The mixture of 100 μl stock solution of 3 with 9.9 ml buffer emits faintly at 395 nm with a side band at 462 nm. Its absorption maximum locates at 311 nm, with a molar absorptivity of 12400M^−1 cm^−1. Upon addition of the DNA, FL intensity of TPE 3 increased by 5.4 fold. Meanwhile its emission maximum shifted to ˜462 nm, giving a Stokes shift as large as 134 nm. In the DNA concentration range of 0-100 μg/ml^−1, the plot of the FL intensity (1) at 462 nm as a function of DNA concentration (c) is a linear line with a correlation coefficient of 0.996. Addition of BSA to a buffer solution of TPE 3 induced a similar effect. The linear range of the I/IO−1 vs. c plot in this case is 0-50 μg/ml^−1. The excitation maximums of the solutions of TPE3 containing BSA and ctDNA both locate at 328 nm.

HSA = HSA (Homo sapiens, UniProt P02768); conditions: cited from earlier work
Chain of HSA (P02768 25-609): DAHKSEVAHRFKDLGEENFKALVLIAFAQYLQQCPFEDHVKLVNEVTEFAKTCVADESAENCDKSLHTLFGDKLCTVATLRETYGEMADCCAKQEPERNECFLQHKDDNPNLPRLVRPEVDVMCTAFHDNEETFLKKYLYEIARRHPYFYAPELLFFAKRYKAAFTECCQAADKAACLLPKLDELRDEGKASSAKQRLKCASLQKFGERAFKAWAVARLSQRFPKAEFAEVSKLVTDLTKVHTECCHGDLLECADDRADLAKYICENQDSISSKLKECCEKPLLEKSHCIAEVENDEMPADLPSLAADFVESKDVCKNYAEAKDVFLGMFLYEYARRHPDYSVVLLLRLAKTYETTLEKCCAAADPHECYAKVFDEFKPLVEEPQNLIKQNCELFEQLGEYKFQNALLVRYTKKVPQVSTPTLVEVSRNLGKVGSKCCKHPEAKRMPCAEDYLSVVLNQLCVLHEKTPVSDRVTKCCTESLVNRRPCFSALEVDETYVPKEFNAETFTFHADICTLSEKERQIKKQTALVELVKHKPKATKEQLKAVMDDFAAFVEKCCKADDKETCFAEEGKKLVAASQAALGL

[6] = aggregate: 99% water/AN for TPE-OMe and TPE-OH, 99% AN/water for TPE-SO3
[7] = solution: acetonitrile for TPE-OMe and TPE-OH (10 μM), water for TPE-SO3 (5 μM)

Compound: 1,2-Diphenyl-1,2-bis(4,4′-(3-sulfonato)propoxyl)phenylethylene [TPE-SO3]
Fluorescence profile during lysozyme fibril formation (lysozyme): produces fluorescence profile corresponding to lysozyme fibrillation
ΦE (quantum yield), aggr [1, 6]: 17.47%
λab (absorption maximum), aggr [1, 6]: 320 nm
Emission maximum wavelength (λem) [1, 6]: 442 nm
ΦE (quantum yield), soln [1, 7]: 0.37%
λab (absorption maximum), soln [1, 7]: 312 nm
Emission maximum wavelength (λem) [1, 7]: 398 nm
Emission on formation of amyloid-β-peptide fibrils (after aging) (amyloid-β-peptide): increases dramatically
ΦE (quantum yield), bind [2]: 58.2%
λex (emission maximum), bind [2]: 472 nm
FL intensity increase upon binding with BSA ([2]; aqueous phosphate buffer, 472 nm): up to 240 times
FL with fibrillar insulin [3]: significantly higher than other cellular proteins tested
FL with heparin, apoferritin and cellulose [3]: comparable to TPE-SO3 solution alone
FL with papain [3]: comparable to native insulin monomer

Compound: CC[N+](CC)(CC)CCCCOc1ccc(C(=C(c2ccc(OCCCC[N+](CC)(CC)CC)cc2)c2ccc(OCCCC[N+](CC)(CC)CC)cc2)c2ccc(OCCCC[N+](CC)(CC)CC)cc2)cc1.[Br-].[Br-].[Br-].[Br-] [N+C4-TPE-C4N^+, N,N′,N″,N′″-[1,2-Tetrakis(1,4-phenoxybutyl)vinyl)tetrakis(triethylammonium bromide)]
Variety of FL in presence of DNA and RNA compared with TPE-C2N+ and TPE-C4N+ [4]: much larger variety of FL

Compound: BrCCOc1ccc(C(=C(c2ccc(OCCBr)cc2)c2ccc(OCCBr)cc2)c2ccc(OCCBr)cc2)cc1 [TBEPE, 1,1,2,2-tetrakis[4-(2-bromoethoxy}phenyl]ethene]
Solubility in water (Solubility): totally insoluble in water
Increase of ΦF at 99% water versus AN solution [5]: ~35 fold
Fluorescence quantum yield (ΦF), molecularly dissolved [5]: 0.5%
Fluorescence quantum yield (ΦF), aggregated [5]: 18%

Compound: BrCCOc1ccc(C(=C(c2ccccc2)c2ccc(OCCBr)cc2)c2ccccc2)cc1 [TPE 1, 1,2-Bis[4-(2-bromoethoxy)phenyl]-1,2-diphenylethene]
Solubility in water (Solubility): insoluble in water
Increase of fluorescent intensity at 476 nm, AN solution to AN-water (1:99) suspension [5]: 240 fold
Increase of ΦF at 99% water versus AN solution [5]: ~40 fold
Fluorescence quantum yield (ΦF), molecularly dissolved [5]: ~0.5%
Fluorescence quantum yield (ΦF), aggregated [5]: ~20%

Compound: CC[N+](CC)(CC)CCOc1ccc(/C(=C(\c2ccccc2)c2ccc(OCC[N+](CC)(CC)CC)cc2)c2ccccc2)cc1.[Br-].[Br-] [TPE-C2N^+, N,N′-[1,2-Diphenyl-1,2-bis(1,4-phenoxyethyl)vinyl]bis(triethylammonium bromide)]
Solubility in water (Solubility): soluble in water
G-quadruplex induction (CD spectral profile) (HG21 DNA): spectral profile comparable to the negative control
Linear range of FL intensity vs BSA concentration [2]: 0-50 μg/ml^−1
Linear range of FL intensity vs DNA concentration (calf thymus DNA (ctDNA)): 0-100 μg/ml^−1
FL intensity increase upon addition of DNA (calf thymus DNA (ctDNA); phosphate buffer pH 7.0, 25 C): 5.4 fold
Relative affinity to ctDNA versus BSA (calf thymus DNA (ctDNA)): better affinity to ctDNA than BSA

Compound: CC[N+](CC)(CC)CCCCOc1ccc(/C(=C(\c2ccccc2)c2ccc(OCCCC[N+](CC)(CC)CC)cc2)c2ccccc2)cc1.[Br-].[Br-] [TPE-C4N^+, N,N′-[1,2-Diphenyl-1,2-bis(1,4-phenoxybutyl)vinyl]bis(triethylammonium bromide)]
Solubility in water (Solubility): soluble in water
Linear range of FL intensity vs BSA concentration [2]: 0-40 μg/ml^−1
I/Io ([2]; 500 μg/ml BSA added): 23.8
Linear range of FL intensity vs DNA concentration (calf thymus DNA (ctDNA)): 0-20 μg/ml^−1
I/Io (calf thymus DNA (ctDNA); 300 μg/ml ct DNA added): 16.3
Relative affinity to ctDNA versus BSA (calf thymus DNA (ctDNA)): gives the opposite result

Compound: Coomassie Brilliant Blue
Staining reaction (soaking) time (HSA): more than 6 hours

Second part, the compound after the results:

Solubility in water (Solubility): insoluble
Compound: O=C(O)c1ccc(/C(=C(\c2ccccc2)c2ccc(C(=O)O)cc2)c2ccccc2)cc1 [TPE-COOH, 4,4′-(1,2-diphenylvinyl)di(phenylcarboxylic acid)]

ΦE (quantum yield), aggr [1, 6]: 8.90%
λab (absorption maximum), aggr [1, 6]: 316 nm
Emission maximum wavelength (λem) [1, 6]: 439 nm
ΦE (quantum yield), soln [1, 7]: 0.57%
λab (absorption maximum), soln [1, 7]: 312 nm
Emission maximum wavelength (λem) [1, 7]: 393 nm
ΦE (quantum yield), bind [2]: 35.7%
λex (emission maximum), bind [2]: 467 nm
Linear range of FL intensity vs BSA concentration ([2]; aqueous phosphate buffer pH 7.0): 0 to 10 µg/mL
Compound: Oc1ccc(/C(=C(\c2ccccc2)c2ccc(O)cc2)c2ccccc2)cc1 [TPE-OH, 1,2-Bis(4-hydroxyphenyl)-1,2-diphenylethylene]

ΦE (quantum yield), aggr [1, 6]: 15.30%
λab (absorption maximum), aggr [1, 6]: 330 nm
Emission maximum wavelength (λem) [1, 6]: 477 nm
ΦE (quantum yield), soln [1, 7]: 0.11%
λab (absorption maximum), soln [1, 7]: 311 nm
Emission maximum wavelength (λem) [1, 7]: 394 nm
Compound: COc1ccc(C(=C(c2ccccc2)c2ccc(OC)cc2)c2ccccc2)cc1 [TPE-OMe, 1,2-Bis(4-methoxyphenyl)-1,2diphenylethene]
